Reference: ChEMBL document CHEMBL3885861, “Open TG-GATES”

Species: Rattus norvegicus
Assay: Open TG-GATES - Regimen: Daily Repeat
Assay type: toxicity, organism-based, Sprague-Dawley
Design: regimen Daily Repeat, gender Male, age 6 weeks
Conditions: in vivo, po, 300 mg/kg, route gavage, dose level Middle; for APTT / Bas / Eos / Fbg / Hb / Ht / Lym / MCH / MCHC / MCV / Mono / Neu / PT / Plat / RBC / Ret / WBC: tissue Blood; for KIDNEY_L / KIDNEY_R / KIDNEY_TOTAL: tissue Kidney; for LIVER: tissue Liver; for A/G / ALP / ALT / AST / BUN / CRE / Ca / Cl / DBIL / GLC / IP / K / LDH / Na / PL / RALB / TBIL / TC / TG / TP / gamma-GTP: tissue Plasma

## CCN1CCCC1CNC(=O)c1cc(S(N)(=O)=O)ccc1OC (configuration not stated) [SULPIRIDE]
72 h, time 3 day
  TERMINAL_BW: 234.7 g
  APTT: 16.7 s
  Bas: 0%
  Eos: 1%
  Fbg: 278.2 mg/dL
  Hb: 13.4 g/dL
  Ht: 40.9%
  Lym: 78.8%
  MCH: 20.6 pg
  MCHC: 32.8%
  MCV: 62.7 fL
  Mono: 3.4%
  Neu: 16.2%
  PT: 13.1 s
  Plat: 118.8 x10_4/uL
  RBC: 653.4 x10_4/ul
  Ret: 6.5%
  WBC: 94.6 x10_2/uL
  KIDNEY_L: 1 g
  KIDNEY_R: 1 g
  KIDNEY_TOTAL: 2.1 g
  LIVER: 11.7 g
  A/G: 0.9
  ALP: 1582.2 IU/L
  ALT: 44 IU/L
  AST: 65.8 IU/L
  BUN: 14.6 mg/dL
  CRE: 0.2 mg/dL
  Ca: 11.1 mg/dL
  Cl: 103.2 meq/L
  DBIL: 0.01 mg/dL
  GLC: 182 mg/dL
  IP: 8 mg/dL
  K: 4.4 meq/L
  LDH: 78.2 IU/L
  Na: 139.6 meq/L
  PL: 147.8 mg/dL
  RALB: 2.7 g/dL
  TBIL: 0.056 mg/dL
  TC: 78.4 mg/dL
  TG: 92.8 mg/dL
  TP: 5.7 g/dL
  gamma-GTP: 1 IU/L
[…], time 7 day
  TERMINAL_BW: 265.3 g
  APTT: 16.9 s
  Bas: 0%
  Eos: 1%
  Fbg: 297.2 mg/dL
  Hb: 13.8 g/dL
  Ht: 41.8%
  Lym: 81.8%
  MCH: 20 pg
  MCHC: 33%
  MCV: 60.4 fL
  Mono: 2.2%
  Neu: 14.4%
  PT: 13.1 s
  Plat: 123.9 x10_4/uL
  RBC: 692.4 x10_4/ul
  Ret: 4.9%
  WBC: 113 x10_2/uL
  KIDNEY_L: 1.1 g
  KIDNEY_R: 1.1 g
  KIDNEY_TOTAL: 2.1 g
  LIVER: 12.5 g
  A/G: 0.8
  ALP: 1497.6 IU/L
  ALT: 46.8 IU/L
  AST: 65.8 IU/L
  BUN: 17 mg/dL
  CRE: 0.2 mg/dL
  Ca: 11 mg/dL
  Cl: 104.2 meq/L
  DBIL: 0.01 mg/dL
  GLC: 182.2 mg/dL
  IP: 8.1 mg/dL
  K: 4.2 meq/L
  LDH: 54.4 IU/L
  Na: 141.6 meq/L
  PL: 143 mg/dL
  RALB: 2.6 g/dL
  TBIL: 0.052 mg/dL
  TC: 70.4 mg/dL
  TG: 114.4 mg/dL
  TP: 5.8 g/dL
  gamma-GTP: 1 IU/L
[…], time 14 day
  TERMINAL_BW: 329.3 g
  APTT: 16.8 s
  Bas: 0.2%
  Eos: 1%
  Fbg: 295.2 mg/dL
  Hb: 14.7 g/dL
  Ht: 44.1%
  Lym: 78.4%
  MCH: 20 pg
  MCHC: 33.4%
  MCV: 60 fL
  Mono: 2.2%
  Neu: 17.2%
  PT: 13.2 s
  Plat: 121.1 x10_4/uL
  RBC: 736 x10_4/ul
  Ret: 4.1%
  WBC: 102.3 x10_2/uL
  KIDNEY_L: 1.3 g
  KIDNEY_R: 1.2 g
  KIDNEY_TOTAL: 2.5 g
  LIVER: 14.2 g
  A/G: 0.9
  ALP: 1350 IU/L
  ALT: 37.4 IU/L
  AST: 62.8 IU/L
  BUN: 16 mg/dL
  CRE: 0.2 mg/dL
  Ca: 11.1 mg/dL
  Cl: 103 meq/L
  DBIL: 0.014 mg/dL
  GLC: 188.8 mg/dL
  IP: 7.8 mg/dL
  K: 3.9 meq/L
  LDH: 50.6 IU/L
  Na: 140.6 meq/L
  PL: 145.2 mg/dL
  RALB: 2.7 g/dL
  TBIL: 0.052 mg/dL
  TC: 71.8 mg/dL
  TG: 109 mg/dL
  TP: 5.8 g/dL
  gamma-GTP: 1 IU/L
[…], time 28 day
  TERMINAL_BW: 375.2 g
  APTT: 17.4 s
  Bas: 0.2%
  Eos: 1.2%
  Fbg: 265 mg/dL
  Hb: 15.8 g/dL
  Ht: 45.8%
  Lym: 76.4%
  MCH: 19.4 pg
  MCHC: 34.5%
  MCV: 56.1 fL
  Mono: 1.8%
  Neu: 20%
  PT: 13.4 s
  Plat: 114.4 x10_4/uL
  RBC: 817 x10_4/ul
  Ret: 2.1%
  WBC: 109.3 x10_2/uL
  KIDNEY_L: 1.3 g
  KIDNEY_R: 1.4 g
  KIDNEY_TOTAL: 2.7 g
  LIVER: 14 g
  A/G: 0.8
  ALP: 1073.6 IU/L
  ALT: 43.8 IU/L
  AST: 65.2 IU/L
  BUN: 17 mg/dL
  CRE: 0.2 mg/dL
  Ca: 10.6 mg/dL
  Cl: 105.2 meq/L
  DBIL: 0.006 mg/dL
  GLC: 184.4 mg/dL
  IP: 6.5 mg/dL
  K: 3.8 meq/L
  LDH: 56.2 IU/L
  Na: 142 meq/L
  PL: 125.4 mg/dL
  RALB: 2.7 g/dL
  TBIL: 0.062 mg/dL
  TC: 63.2 mg/dL
  TG: 84.4 mg/dL
  TP: 6.1 g/dL
  gamma-GTP: 1 IU/L
